Data as given in patent US6787315B2, “Methods for identifying ligand binding sites in a biomolecule” (priority 2001, dated 2004).

Tested on: 16S RNA versus modified 16S RNA (5IU1495)
Assay: Dissociation rate of binary ligand complexes versus relative energy (capillary exit-skimmer voltage), ESI-FT-ICR MS
Type: binding, E. coli
Settings: Example 8: 2-deoxystreptamine 100 μM, RNAs 2.5 μM each
Protocol: The following examples illustrate preferred embodiments of the present invention using mass spectrometry. Experiments were performed using a 7.0 Tesla Fourier transform ion cyclotron resonance (FT-ICR) mass spectrometer with an electrospray ionization source operating in the negative mode. A −3000 V difference was employed between the spray tip and the inlet capillary to generate the electrospray. Samples were introduced at a flow rate of 1.5 uL/min using a Harvard syringe pump and a 50 uL glass syringe. The desolvation of the electrospray droplets was aided by a flow of countercurrent gas at 1 L/min. Ions were accumulated for 1.0 sec in an intermediate hexapole ion storage region at 1.0×10^−5 mbar. Following transfer to the FT-ICR analysis cell, the image current was measured over a mass range of 500-4000 m/z. Typically, a total of 32 transients containing 512 kbytes were summed prior to Fourier transformation. […]
An aqueous solution containing 50 mM ammonium acetate buffer (pH 7.0), 33% isopropyl alcohol, 2-deoxystreptamine (100 μM), 16S RNA (2.5 μM) and a modified 16S RNA (2.5 μM) was prepared. […] The peaks were integrated and ion abundances determined for each of the separate runs. Fractions of 16S+2-DOS and 5IU1495+2-DOS complexes were determined and plotted according to relative energy as depicted in FIG. 6. […]

N[C@@H]1C[C@H](N)[C@@H](O)C(O)[C@H]1O (some centres unmarked) [2-deoxystreptamine]
Difference in dissociation rate (slope) between the 16S and 5IU1495 systems, first region (1 to 2 relative energy units (FIG. 6)): about 25% | Dissociation rate (slope) of 16S versus 5IU1495 systems, higher energy region (2 to 4 relative energy units (FIG. 6)): substantially equal
